In data set [1] the test system is HOE cells (normal human ovarian surface epithelial). Nature of the data set: Sulforhodamine B (SRB) cell growth inhibitory assay. Type of data set: cell-based. The following applies: for IC50: SRB, 72 h; for cytotoxic activity against HOE cells: compared with OVCAR-4 and OVCAR-8. How it is done: (§1) The human ovarian cancer cell lines and normal human ovarian surface epithelial (HOE) cells were used in this study. Ovarian cancer cell lines (OVCAR-4 and OVCAR-8) were products of American tissue culture collection (ATCC). The HOE cells were purchased from Applied Biological Materials (ABM) Inc. (Vancouver, BC, Canada). The Rosewell Park Memorial Institute (RPMI 1640, Lonza) medium was used in the culturing of OVCAR-4, OVCAR-8, and HOE cells. The medium was supplemented with 2 mM glutamine, 10% foetal bovine serum (FBS), and 50 µg/mL penicillin streptomycin. These cells were incubated in a standard humidified incubator) at 37 °C, 5% carbon dioxide (CO2) conditions.
(§2) Sulforhodamine B (SRB) assay was used to determine the inhibition of cell proliferation by the studied compounds and plant extracts. Plant extracts/fractions (100 mg/mL) and pure compounds (20 mM) were prepared in DMSO. The 0.2% DMSO in growth media was added to the cells as vehicle-treated cells (negative control) while carboplatin was used as positive control. In the SRB assay, OVCAR-4, OVCAR-8, and HOE cells were seeded in 80 µL growth medium per each well in 96 well plates. OVCAR-4 and HOE were seeded at a density of 5000 cells per well while OVCAR-8 was seeded at a density of 2000 cells per well. The seeded plates were incubated for 24 h, after which 20 μL of plant extracts and natural compounds 1000 µg/mL and 200 µM (and their serial two-fold dilutions), respectively, were added at the indicated concentrations. The cell cultures were incubated at 37 °C under 5% CO2 for 72 h in a humidified atmosphere.
(§3) After 72 h, the medium was decanted, and the cells fixed with 0.1 mL of 10% TCA on ice for 30 min before drying. The cells were stained with 0.4% SRB, washed with 1% acetic acid three times and dried. Then, 0.1 mL of Tris-base (10 mM) was added to the plates to solubilise the protein-bound SRB dye. The absorbance at 570 nm was measured using a spectroscopic plate reader (Multi-mode microplate reader BioTEK Synergy 2, Winooski, VT, USA). The data were analysed by non-linear regression to fit a 4-parameter sigmoidal dose–response curve to determine IC50 values using GraphPad PRISM 6.0 software, Inc. (San Diego, CA, USA).
(§4) The IC50s were obtained from at least three repeated experiments. The mean IC50 was calculated, and the standard error of mean (SEM) was determined. Furthermore, a one way analysis of variance (ANOVA) and student t test were used to test if the difference in the mean of control and treatments and mean of treatment at different concentration were significant. A post hoc Dunnett test was used to determine which of the treatments was significant to the control while a Tukey test was used to determine which of the concentrations of a particular treatment were significant using GraphPad prism 6.

Data set [2] relates to OVCAR-4 and OVCAR-8 cells. The data set can be described thus: SRB cell growth assay, result stated jointly for both cancer lines. The data set is classed as cell-based, human. The following applies: span over the two cell lines, read-out: IC50 against OVCAR-4 and OVCAR-8 cells. The procedure:
as §1, §2, §3, §4

Data set [3] concerns caspase 8 in OVCAR-8 cells. The data set can be described thus: Caspase-Glo 8 activity assay. Type of data set: cell-based, human. How it is done: (§5) Caspase 3/7 activities was measured using assay kits caspase-Glo 3/7 (Promega Corp., Madison, WI, USA) on a 96-well microplate. Briefly, the cells (OVCAR-4 and OVCAR-8) were seeded in 96 well plates at a cell density of 5000 cells/well in 80 μL growth media and exposed to 10, 20 and/or 30 μM of the natural compounds after 24 h incubation. After 48 h exposure to compound treatments, 25 μL of Caspase 3/7 Glo-reagent was added, and the cells were incubated in the dark at room temperature for 30 min on a gentle rocker. The luminescence was measured at […] by a BioTEK Synergy microplate reader (USA). A similar procedure was followed for caspase 8 and caspase 9 activity.

Data set [4] concerns OVCAR-8 cells. The data set can be described thus: Annexin V-FITC / propidium iodide flow cytometry. The following applies: 5, 10, and 20 µM, 48 h treatment. The data set is classed as cell-based, human. The procedure:
The in vitro method of fluorescence-activated cell sorting (FACS) by Annexin V and propidium iodide (PI) staining was used to detect the change of cell population as reported. OVCAR-8 cells were seeded in 12 well plates at a density of 2 × 10^5 cells per well in 1 mL of growth media and incubated for 24 h before treatment with the tested compound and positive control. After treatment for 48 h, media were decanted into 15 mL tubes, and cell pellets were collected into the same tubes by trypsinisation, the cells were centrifuged at 150× g for 3 min and re-suspended into 1 mL growth media, which was transferred into sterile 2 mL Eppendorf tube, centrifuged at 300× g for 5 min at 4 °C. The media were aspirated, and the pellet was washed in cold PBS. The cells were centrifuged under the same conditions and the supernatant aspirated. Cells were washed in 500 µL annexin-V binding buffer and centrifuged at 300× g for 10 min, annexin-V binding buffer was aspirated, and the cell pellet was treated with 10 µL of annexin V-FITC in 100 µL of binding buffer. The cells were thoroughly mixed and incubated in the dark at room temperature for 15 min. After incubation, cells were washed in binding buffer and centrifuged at 300× g for 10 min. The buffer was aspirated, and cells were suspended in 500 µL binding buffer and subsequently 5 µL of PI was added for flow cytometry analysis.

The subject of data set [5] is caspase 9 in OVCAR-8 cells. The data set can be described thus: Caspase-Glo 9 activity assay. The data set is classed as cell-based, human. How it is done:
as §5

The subject of data set [6] is caspase 3/7 in OVCAR-8 cells. Nature of the data set: Caspase-Glo 3/7 activity assay. Type of data set: cell-based, human. The following applies: 10, 20 and/or 30 μM, 48 h, vs control, one-way ANOVA. The procedure: as §5
The subject of data set [7] is caspase 3/7 in OVCAR-4 cells. Nature of the data set: Caspase-Glo 3/7 activity assay. The data set is classed as cell-based, human. To be noted: 10, 20 and/or 30 μM, 48 h, vs control, one-way ANOVA. How it is done:
as §5

Data set [8] in a line: Thermal stability (GC-MS conditions; heating followed by HPLC). The data set is classed as physicochemical. The procedure: Briefly, 1.0–2.0 mg of the bioactive fractions and isolated compounds of J. insularis were dissolved in 200 μL of ethyl acetate and sonicated at <40 °C for 5 min. 1–2 μL of the solution was subsequently injected into gas chromatography mass spectrometry (GC-MS) system consisting of an Agilent 7890 coupled to Agilent MS model 5975C MSD (Agilent Technologies, Cold Spring, NY, USA). The gas chromatography started at 60 °C for 2 min and increased to 300 °C at the rate of 10 °C/min, which was held at 300 °C for 4 min at a constant helium pressure (10 psi). The mass spectra data were acquired in the scan mode in m/z range 40–1000.
The molecular formula of 1 was determined as C20H30O3 based on the observed molar mass of compound 1 (found, 318.2123 Da) by LC-HR-MS (Figure S4). […] The other observed compounds, 1a and 1b (Figure S5), were determined to be the thermal degradation products of compound 1 due to the presence of a γ–hydroxy unsaturated 5-membered lactone moiety (Figure 1) under high temperature conditions (60 °C–300 °C) for 30 min of GC-MS. […] Furthermore, the percentage of compound 1 in organic extracts was determined to be 34%. Thus, the composition of compound 1 in the plant material is 0.7% (dry weight), a very abundant secondary metabolite in the leave of J. insularis.

For data set [9], the system named is OVCAR-4 cells. Nature of the data set: Sulforhodamine B (SRB) cell growth inhibitory assay. Type of data set: cell-based, human. The procedure: as §1, §2, §3, §4
The subject of data set [10] is OVCAR-8 cells. Described as above. The data set is classed as cell-based, human. The following applies: for SI against OVCAR-8: ratio of IC50 against HOE cells to IC50 against OVCAR-8. The procedure:
as §1, §2, §3, §4

For data set [11], the system named is Hela cells. Further details: method as in PMID 32213364. The following applies: from the leaves of Casearia kurzii; read-out: IC50 against Hela cells; cited from earlier work.
Where [12] appears, read: Homo sapiens, mean ± SEM, read-out: growth inhibitory activity, IC50, HOE.
Where [13] appears, read: Homo sapiens, same IC50 given in μg/mL, read-out: growth inhibitory activity, IC50, HOE, in parentheses (converted).
[14] abbreviates: Homo sapiens, OVCAR-4, 72 h, mean ± SEM, read-out: growth inhibitory activity, IC50, OVCAR-4.
Setting [15] is: Homo sapiens, OVCAR-4, 72 h, same IC50 given in μg/mL, read-out: growth inhibitory activity, IC50, OVCAR-4, in parentheses (converted).
Setting [16] is: Homo sapiens, OVCAR-8, SRB, 72 h, mean ± SEM, read-out: growth inhibitory activity, IC50, OVCAR-8.
Where [17] appears, read: Homo sapiens, OVCAR-8, SRB, 72 h, same IC50 given in μg/mL, read-out: growth inhibitory activity, IC50, OVCAR-8, in parentheses (converted).

Read-outs that look alike come from different tables or passages of the source.

Data on 4 compounds can be found in publication PMC8512812, “Clerodane Diterpenoids from an Edible Plant Justicia insularis: Discovery, Cytotoxicity, and Apoptosis Induction in Human Ovarian Cancer Cells” (Molecules, 2021).

`CC1=CCC[C@@H]2[C@@](C)(CCC3=CC(=O)OC3O)[C@H](C)CC[C@@]12C` (mixture of isomers) [Compound 1, 16(α/β)-hydroxy-cleroda-3,13(14)Z-dien-15,16-olide]: the IC50 is 12.1 ± 0.1 µM in [1] (setting [12]); 3.9 mg/L in [1] (setting [13]); 4 to 6 µM in data set [2] (Homo sapiens); below 6 µM in data set [2]; 5.7 ± 0.3 µM in data set [9] (setting [14]); 1.8 mg/L in data set [9] (setting [15]). Moreover, the IC50 in [10] (Homo sapiens, OVCAR-8, Figure S1 scheme, read-out: IC50 in OVCAR-8 (Figure S1)) was 1.42 mg/L; in [10] (setting [16]), 4.4 ± 0.2 µM; in data set [10] (setting [17]), 1.4 mg/L. In addition, in [1], the “cytotoxic activity against HOE cells” value is recorded as “less cytotoxic activity”. Also, the “caspase 8 activity” value in [3] is listed as “increased”. For the same compound, the “percentage of early and late apoptosis” value in data set [4] is “concentration-dependent and significant increase”. Also, in data set [5], the “caspase 9 activity” value is “increased”. Moreover, the “caspase 3/7 activities” value in data set [6] and in data set [7] was “significantly increased” each time. Besides, in data set [8] (200 °C for 0.5 h followed by HPLC analysis), the “thermal stability, HPLC after heating” value is “formation of new products”. The “thermal stability” value in [8] (at a high temperature) is listed as “thermally unstable”. Moreover, the “SI against OVCAR-8” value in data set [10] is reported as 3.

For `N.N.O=C([O-])C1(C(=O)[O-])CCC1.[Pt+2]` [Carboplatin, carboplatin, reference compound], the IC50 in [1] (mean ± SEM, read-out: growth inhibitory activity, IC50, HOE) is 13 ± 3.7 µM; in data set [2], 8 to 18 µM; in [9] (72 h, mean ± SEM, read-out: growth inhibitory activity, IC50, OVCAR-4), 17.6 ± 4.6 µM; in [10] (SRB, 72 h, mean ± SEM, read-out: growth inhibitory activity, IC50, OVCAR-8) it was 8.2 ± 2.2 µM. Further, the “SI against OVCAR-8” value in [10] was 1.6.

Turning to `CC1=CCC[C@@H]2[C@@](C)(CC/C(C=O)=C\C(=O)O)[C@H](C)CC[C@@]12C` [Compound 2, 16-oxo-cleroda-3,13(14)E-dien-15-oic acid], the IC50 in data set [1] (setting [12]) is 22.8 ± 0.7 µM; in [1] (setting [13]), 7.3 mg/L; in data set [2] (Homo sapiens), 12 to 17 µM; in data set [9] (setting [14]), 16.6 ± 2.8 µM; in [9] (setting [15]), 5.3 mg/L; in data set [10] (setting [16]), 11.8 ± 0.5 µM. Also, in [10] (setting [17]), the IC50 is 3.8 mg/L. Also, the “cytotoxic activity against HOE cells” value in data set [1] was “less cytotoxic activity”. The “caspase 3/7 activities” value in [6] and in data set [7] was “significantly increased” in each case. The “SI against OVCAR-8” value in [10] turned out to be 2.

In the case of Kurzipene B, in data set [11], the IC50 is 5.3 µM.
